Experiment [1] deals with HCV genotype 1a (H77 strain) replicon in HUH-7 cells. Nature of the experiment: HCV replicon luciferase reporter assay, genotype 1a. The experiment is classed as cell-based. As to conditions: Hepatitis C virus, Huh-7, 72 h, HCV genotype 1a replicon luciferase, 3 days incubation. In short, it runs like this: (§1)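 Replicon inhibition for both genotypes was measured as Renilla luciferase signal (EnduRen, 7.5 μM final, 2 h) after 3-day, 37° C exposure of replicon-bearing HUH-7 cells in 4% FCS DMEM, 0.5% DMSO. The 1b construct carries S1179I; the 1a H77 construct carries P1496L and S2204I. Twenty-point, 3-fold dilutions were fitted four-parametrically for EC50, and CC50 was taken from multiplexed Cell Titer-Blue.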
(In general: In antiviral work, replicon cells carry a viral genome segment that copies itself.)

Experiment [2] relates to HCV genotype 1b (Con1) replicon in HUH-7 cells. Nature of the experiment: HCV replicon luciferase reporter assay, genotype 1b. The experiment is classed as cell-based. As to conditions: Hepatitis C virus, Huh-7, 72 h, HCV genotype 1b replicon luciferase, 3 days incubation. In short, it runs like this: as §1

The source of these data is patent publication US9499550B2 (BRISTOL-MYERS SQUIBB COMPANY, priority 2012, dated 2016).

Read-outs that look alike come from different tables or passages of the source.

One may read the EC50 as the concentration at which the effect is half-maximal. On to `CCn1nc(O[C@@H]2C[C@H]3C(=O)N[C@]4(C(=O)NS(=O)(=O)C5(C)CC5)C[C@H]4/C=C\CC[C@@H](C)C[C@@H](C)[C@H](NC(=O)OC(C)(C)C)C(=O)N3C2)c2ccccc2c1=O` [Compound 5065, tert-butyl ((2R,6S,7R,9R,13aS,14aR,16aS,Z)-2-((3-ethyl-4-oxo-3,4-dihydrophthalazin-1-yl)oxy)-7,9-dimethyl-14a-(((1-methylcyclopropyl)sulfonyl)carbamoyl)-5,16-dioxo-1,2,3,5,6,7,8,9,10,11,13a,14,14a,15,16,16a-hexadecahydrocyclopropa[e]pyrrolo[1,2-a][1,4]diazacyclopentadecin-6-yl)carbamate], for which the concentration for a half-maximal effect (EC50) in experiment [1] (read-out: LE_1a (EC50, range)) was 0.00482 to 0.103 µM; in experiment [2] (read-out: LE_1b (EC50, range)), < 0.00546 µM.
The like results for `CCn1nc(O[C@@H]2C[C@H]3C(=O)N[C@]4(C(=O)NS(=O)(=O)C5CC5)C[C@H]4/C=C\CC[C@H](C)C[C@@H](C)[C@H](NC(=O)OC(C)(C)C(F)(F)F)C(=O)N3C2)c2ccccc2c1=O` [Compound 5066, 1,1,1-trifluoro-2-methylpropan-2-yl((2R,6S,7R,9S,13aS,14aR,16aS,Z)-14a-((cyclopropylsulfonyl)carbamoyl)-2-((3-ethyl-4-oxo-3,4-dihydrophthalazin-1-yl)oxy)-7,9-dimethyl-5,16-dioxo-1,2,3,5,6,7,8,9,10,11,13a,14,14a,15,16,16a-hexadecahydrocyclopropa[e]pyrrolo[1,2-a][1,4]diazacyclopentadecin-6-yl)carbamate] were, in that order, > 0.0874 µM and > 0.0874 µM.
The like results for `CCn1nc(O[C@@H]2C[C@H]3C(=O)N[C@]4(C(=O)NS(=O)(=O)C5CC5)C[C@H]4/C=C\CC[C@@H](C)C[C@@H](C)[C@H](NC(=O)OC(C)(C)C(F)(F)F)C(=O)N3C2)c2ccccc2c1=O` [Compound 5067, 1,1,1-trifluoro-2-methylpropan-2-yl((2R,6S,7R,9R,13aS,14aR,16aS,Z)-14a-((cyclopropylsulfonyl)carbamoyl)-2-((3-ethyl-4-oxo-3,4-dihydrophthalazin-1-yl)oxy)-7,9-dimethyl-5,16-dioxo-1,2,3,5,6,7,8,9,10,11,13a,14,14a,15,16,16a-hexadecahydrocyclopropa[e]pyrrolo[1,2-a][1,4]diazacyclopentadecin-6-yl)carbamate] were, in that order, 0.00482 to 0.103 µM and 0.00482 to 0.103 µM.
The like results for `[2H]C([2H])([2H])C(OC(=O)N[C@@H]1C(=O)N2C[C@H](Oc3nn(CC)c(=O)c4ccccc34)C[C@H]2C(=O)N[C@]2(C(=O)NS(=O)(=O)C3CC3)C[C@H]2/C=C\CC[C@H](C)C[C@H]1C)(C([2H])([2H])[2H])C(F)(F)F` [Compound 5068] were, in that order, > 0.0874 µM and > 0.0874 µM.
As to `[2H]C([2H])([2H])C(OC(=O)N[C@@H]1C(=O)N2C[C@H](Oc3nn(CC)c(=O)c4ccccc34)C[C@H]2C(=O)N[C@]2(C(=O)NS(=O)(=O)C3CC3)C[C@H]2/C=C\CC[C@@H](C)C[C@H]1C)(C([2H])([2H])[2H])C(F)(F)F` [Compound 5069], the concentration giving a half-maximal response (EC50) is 0.0149 µM in experiment [1] (read-out: LE_1a (EC50)); 0.00482 to 0.103 µM in experiment [1] (read-out: LE_1a (EC50, range)); 0.00721 µM in experiment [2] (read-out: LE_1b (EC50)); 0.00482 to 0.103 µM in experiment [2] (read-out: LE_1b (EC50, range)).
On to `CCn1nc(O[C@@H]2C[C@H]3C(=O)N[C@]4(C(=O)NS(=O)(=O)C5CC5)C[C@H]4/C=C\CC[C@@H](C)C[C@@H](C)[C@H](NC(=O)O[C@@H]4C[C@@H]5C[C@@H]5C4)C(=O)N3C2)c2ccccc2c1=O` [Compound 5070, (1R,3r,5S)-bicyclo[3.1.0]hexan-3-yl((2R,6S,7R,9R,13aS,14aR,16aS,Z)-14a-((cyclopropylsulfonyl)carbamoyl)-2-((3-ethyl-4-oxo-3,4-dihydrophthalazin-1-yl)oxy)-7,9-dimethyl-5,16-dioxo-1,2,3,5,6,7,8,9,10,11,13a,14,14a,15,16,16a-hexadecahydrocyclopropa[e]pyrrolo[1,2-a][1,4]diazacyclopentadecin-6-yl)carbamate], for which the concentration giving a half-maximal response (EC50) in experiment [1] (read-out: LE_1a (EC50, range)) was 0.00482 to 0.103 µM; in experiment [2] (read-out: LE_1b (EC50, range)) it was < 0.00546 µM.
Regarding `CCn1nc(O[C@@H]2C[C@H]3C(=O)N[C@]4(C(=O)NS(=O)(=O)C5CC5)C[C@H]4/C=C\CC[C@H](C)C[C@@H](C)[C@H](NC(=O)NC(C)(C)C)C(=O)N3C2)c2ccccc2c1=O` [Compound 5071, (2R,6S,7R,9S,13aS,14aR,16aS,Z)-6-(3-(tert-butyl)ureido)-N-(cyclopropylsulfonyl)-2-((3-ethyl-4-oxo-3,4-dihydrophthalazin-1-yl)oxy)-7,9-dimethyl-5,16-dioxo-1,2,3,5,6,7,8,9,10,11,13a,14,14a,15,16,16a-hexadecahydrocyclopropa[e]pyrrolo[1,2-a][1,4]diazacyclopentadecine-14a-carboxamide], the EC50 in experiment [1] (read-out: LE_1a (EC50)) was ≥ 1 µM; in experiment [1] (read-out: LE_1a (EC50, range)), > 0.0874 µM; in experiment [2] (read-out: LE_1b (EC50)), 1 µM; in experiment [2] (read-out: LE_1b (EC50, range)), > 0.0874 µM.
As to `CCn1nc(O[C@@H]2C[C@H]3C(=O)N[C@]4(C(=O)NS(=O)(=O)C5CC5)C[C@H]4/C=C\CC[C@@H](C)C[C@@H](C)[C@H](NC(=O)NC(C)(C)C)C(=O)N3C2)c2ccccc2c1=O` [Compound 5072, (2R,6S,7R,9R,13aS,14aR,16aS,Z)-6-(3-(tert-butyl)ureido)-N-(cyclopropylsulfonyl)-2-((3-ethyl-4-oxo-3,4-dihydrophthalazin-1-yl)oxy)-7,9-dimethyl-5,16-dioxo-1,2,3,5,6,7,8,9,10,11,13a,14,14a,15,16,16a-hexadecahydrocyclopropa[e]pyrrolo[1,2-a][1,4]diazacyclopentadecine-14a-carboxamide], the EC50 in experiment [1] (read-out: LE_1a (EC50, range)) is > 0.0874 µM; in experiment [2] (read-out: LE_1b (EC50, range)) it was 0.00482 to 0.103 µM.
The like results for `CCn1nc(O[C@@H]2C[C@H]3C(=O)N[C@]4(C(=O)NS(=O)(=O)C5CC5)C[C@H]4/C=C\CC[C@H](C)C[C@@H](C)[C@H](NC(=O)c4ccc(N(C)C)cc4)C(=O)N3C2)c2ccccc2c1=O` [Compound 5073, (2R,6S,7R,9S,13aS,14aR,16aS,Z)—N-(cyclopropylsulfonyl)-6-(4-(dimethylamino)benzamido)-2-((3-ethyl-4-oxo-3,4-dihydrophthalazin-1-yl)oxy)-7,9-dimethyl-5,16-dioxo-1,2,3,5,6,7,8,9,10,11,13a,14,14a,15,16,16a-hexadecahydrocyclopropa[e]pyrrolo[1,2-a][1,4]diazacyclopentadecine-14a-carboxamide] were, in that order, > 0.0874 µM and > 0.0874 µM.
The like results for `CCn1nc(O[C@@H]2C[C@H]3C(=O)N[C@]4(C(=O)NS(=O)(=O)C5CC5)C[C@H]4/C=C\CC[C@@H](C)C[C@@H](C)[C@H](NC(=O)c4ccc(N(C)C)cc4)C(=O)N3C2)c2ccccc2c1=O` [Compound 5074, (2R,6S,7R,9R,13aS,14aR,16aS,Z)—N-(cyclopropylsulfonyl)-6-(4-(dimethylamino)benzamido)-2-((3-ethyl-4-oxo-3,4-dihydrophthalazin-1-yl)oxy)-7,9-dimethyl-5,16-dioxo-1,2,3,5,6,7,8,9,10,11,13a,14,14a,15,16,16a-hexadecahydrocyclopropa[e]pyrrolo[1,2-a][1,4]diazacyclopentadecine-14a-carboxamide] were, in that order, 0.00482 to 0.103 µM and 0.00482 to 0.103 µM.
Consider `CCn1nc(O[C@@H]2C[C@H]3C(=O)N[C@]4(C(=O)NS(=O)(=O)C5CC5)C[C@H]4/C=C\CC[C@H](C)C[C@@H](C)[C@H](NC(=O)C(=O)N(C)C)C(=O)N3C2)c2ccccc2c1=O` [Compound 5075, N1-((2R,6S,7R,9S,13aS,14aR,16aS,Z)-14a-((cyclopropylsulfonyl)carbamoyl)-2-((3-ethyl-4-oxo-3,4-dihydrophthalazin-1-yl)oxy)-7,9-dimethyl-5,16-dioxo-1,2,3,5,6,7,8,9,10,11,13a,14,14a,15,16,16a-hexadecahydrocyclopropa[e]pyrrolo[1,2-a][1,4]diazacyclopentadecin-6-yl)-N2,N2-dimethyloxalamide], for which the EC50 in experiment [1] (read-out: LE_1a (EC50)) was ≥ 1 µM; in experiment [1] (read-out: LE_1a (EC50, range)), > 0.0874 µM; in experiment [2] (read-out: LE_1b (EC50)), 1 µM; in experiment [2] (read-out: LE_1b (EC50, range)) it was > 0.0874 µM.
As to `CCn1nc(O[C@@H]2C[C@H]3C(=O)N[C@]4(C(=O)NS(=O)(=O)C5CC5)C[C@H]4/C=C\CC[C@@H](C)C[C@@H](C)[C@H](NC(=O)C(=O)N(C)C)C(=O)N3C2)c2ccccc2c1=O` [Compound 5076, N1-((2R,6S,7R,9R,13aS,14aR,16aS,Z)-14a-((cyclopropylsulfonyl)carbamoyl)-2-((3-ethyl-4-oxo-3,4-dihydrophthalazin-1-yl)oxy)-7,9-dimethyl-5,16-dioxo-1,2,3,5,6,7,8,9,10,11,13a,14,14a,15,16,16a-hexadecahydrocyclopropa[e]pyrrolo[1,2-a][1,4]diazacyclopentadecin-6-yl)-N2,N2-dimethyloxalamide], the 50% effective concentration (EC50) is > 0.0874 µM in experiment [1] (read-out: LE_1a (EC50, range)) and > 0.0874 µM in experiment [2] (read-out: LE_1b (EC50, range)).
As to `CCn1nc(O[C@@H]2C[C@H]3C(=O)N[C@]4(C(=O)NS(=O)(=O)C5(CF)CC5)C[C@H]4/C=C\CC[C@H](C)C[C@@H](C)[C@H](NC(=O)OC(C)(C)C(F)(F)F)C(=O)N3C2)c2ccccc2c1=O` [Compound 5077], the 50% effective concentration (EC50) in experiment [1] (GETYPE1A, read-out: LE_1a (EC50, range)) is 0.00482 to 0.103 µM; in experiment [2] (GETYPE1B, read-out: LE_1b (EC50, range)) it was 0.00482 to 0.103 µM.
